Key:
FXR = biological target: T1, FXR (Homo sapiens, UniProt Q96RI1); assay: FXR Transactivation Assay (GAL4 luciferase reporter, pBIND-FXR in HEK293T); format: cell-based; settings: HEK293T cells
T1 construct: expressed in transfected cells; host or cells: HEK293T
T1 sequence (Q96RI1 1-486): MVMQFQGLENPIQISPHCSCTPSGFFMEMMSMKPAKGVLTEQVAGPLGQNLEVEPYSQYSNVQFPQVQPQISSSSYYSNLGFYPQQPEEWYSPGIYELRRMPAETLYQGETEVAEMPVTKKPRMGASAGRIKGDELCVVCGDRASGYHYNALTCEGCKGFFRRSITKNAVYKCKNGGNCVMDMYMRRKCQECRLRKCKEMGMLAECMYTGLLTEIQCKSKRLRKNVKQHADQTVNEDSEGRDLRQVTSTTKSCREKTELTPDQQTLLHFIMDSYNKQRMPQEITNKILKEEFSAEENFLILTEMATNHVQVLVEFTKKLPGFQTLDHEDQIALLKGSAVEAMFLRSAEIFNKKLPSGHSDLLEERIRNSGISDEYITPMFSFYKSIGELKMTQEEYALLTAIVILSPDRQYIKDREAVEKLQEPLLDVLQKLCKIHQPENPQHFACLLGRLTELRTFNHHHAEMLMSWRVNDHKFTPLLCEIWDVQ
Procedure: FXR Transactivation Assay
pGL4.35 [luc2P/9XGAL4 UAS/Hygro]
Steady-Glo™ Luciferase Assay System
GW4064 as a positive control
(§1) • 1. Hek293T cells were plated at 1.1*10^6/ml into a 100 mm dish. • 2. […] Cells were incubated at 37° C. under 5% CO2 atmosphere. • 3. All of compounds were 3-fold serial diluted from 10 mM stock for 10 doses in DMSO. • 4. Transfer compound dilutions into 384 well assay plates using liquid workstation. • 5. Seed 25 ul HEK293T cells into 384 well assay plate (prepared step 4) at 0.6*10^5/ml. Cells were incubated at 37° C. under 5% CO2 atmosphere overnight. • 6. Add 25 ul steady-Glo™ Luciferase Assay Reagent into each well of 384-well assay plate. • 7. […] Calculate EC50 by fitting % Activity values and log of compound concentrations to nonlinear regression (dose response−variable slope) with Graphpad 5.0. FXR Coactivator Assay Reagents: LanthaScreen™ TR-FRET Farnesoid X Receptor Coactivator Assay GW4064 as a positive control Process: • 1. All of compounds were 3-fold serial diluted from 10 mM stock for 10 doses in DMSO. • 2. Dilute each 100× agonist serial dilution to 2× using Complete Coregulator buffer G. • 3. Transfer 10 μl of each of the 2× agonist serial dilutions to 384 well assay plates. • 4. Add 5 μl of 4×FXR-LBD to 384 well assay plates. • 5. […] Incubate at room temperature protected from light. • 7. […] Calculate EC50 by fitting % Activity values and log of compound concentrations to nonlinear regression (dose response−variable slope) with Graphpad 5.0.

FXR-LBD = biological target: T2, FXR-LBD (Homo sapiens, UniProt Q96RI1); assay: FXR Coactivator Assay (LanthaScreen TR-FRET); format: biochemical
T2 construct: Add 5 μl of 4×FXR-LBD to 384 well assay plates; purchased
T2 sequence (Q96RI1 262-486 limits assumed): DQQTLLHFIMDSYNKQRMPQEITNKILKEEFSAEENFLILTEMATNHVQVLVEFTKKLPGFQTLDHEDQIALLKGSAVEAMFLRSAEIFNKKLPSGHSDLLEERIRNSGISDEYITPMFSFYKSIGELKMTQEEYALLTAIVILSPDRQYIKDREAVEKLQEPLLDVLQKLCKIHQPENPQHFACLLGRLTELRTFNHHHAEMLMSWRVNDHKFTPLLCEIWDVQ
Procedure: as §1

| EC50 (FXR) | EC50 (FXR-LBD) | Compound |
| --- | --- | --- |
| 101 to 400 nM | – | COc1cc(C(N)=O)cc2sc(N3CCN(Cc4c(-c5c(Cl)cncc5Cl)noc4C4CC4)C[C@H]3C)nc12 [VIII-03, 2-[(2R)-4-[[5-Cyclopropyl-3-(3,5-dichloropyridin-4-yl)-1,2-oxazol-4-yl]methyl]-2-methylpiperazin-1-yl]-4-methoxy-1,3-benzothiazole-6-carboxamide] |
| 10 to 100 nM | 10 to 100 nM | CC(C)c1cc(C(=O)O)cc2sc(N3CCN(Cc4c(-c5c(Cl)cccc5Cl)noc4C4CC4)C[C@H]3C)nc12 [VII-01, (R)-2-(4-((5-Cyclopropyl-3-(2,6-dichlorophenyl)isoxazol-4-yl)methyl)-2-methylpiperazin-1-yl)-4-isopropylbenzo[d]thiazole-6-carboxylic acid] |
| 10 to 100 nM | – | C[C@@H]1CN(Cc2c(-c3c(Cl)cccc3Cl)noc2C2CC2)CCN1c1nc2c(OC(F)(F)F)cc(C(=O)O)cc2s1 [VII-04, 2-[(2R)-4-[[5-Cyclopropyl-3-(2,6-dichlorophenyl)-1,2-oxazol-4-yl]methyl]-2-methylpiperazin-1-yl]-4-(trifluoromethoxy)-1,3-benzothiazole-6-carboxylic acid] |
| 101 to 400 nM | 10 to 100 nM | COc1cc(C(N)=O)cc2sc(N3CCN(Cc4c(-c5c(Cl)cccc5Cl)noc4C(C)C)CC3)nc12 [VIII-01] |
| 401 to 5000 nM | – | COc1cc(C(N)=O)cc2nc(N3CCN(Cc4c(-c5c(Cl)cccc5Cl)noc4C4CC4)C[C@@H]3C)sc12 [VIII-04, (S)-2-(4-((5-Cyclopropyl-3-(2,6-dichlorophenyl)isoxazol-4-yl)methyl)-2-methylpiperazin-1-yl)-7-methoxybenzo[d]thiazole-5-carboxamide] |
| 401 to 5000 nM | – | COc1cc(-c2nnn[nH]2)cc2sc(N3CCN(Cc4c(-c5c(Cl)cccc5Cl)noc4C(C)C)CC3)nc12 [IX-02, 3-(2,6-Dichlorophenyl)-5-isopropyl-4-((4-(4-methoxy-6-(1H-tetrazol-5-yl)benzo[d]thiazol-2-yl)piperazin-1-yl)methyl)isoxazole] |
| 401 to 5000 nM | – | COc1cc(C#N)cc2sc(N3CCN(Cc4c(-c5c(Cl)cccc5Cl)noc4C(C)C)CC3)nc12 [IX-01, 2-(4-((3-(2,6-Dichlorophenyl)-5-isopropylisoxazol-4-yl)methyl)piperazin-1-yl)-4-methoxybenzo[d]thiazole-6-carbonitrile] |

Further lines, the compound ahead of its results:

| Compound | EC50 (FXR) | EC50 (FXR-LBD) |
| --- | --- | --- |
| COc1cc(C(=O)O)cc2sc(N3CCN(Cc4c(-c5c(Cl)cccc5Cl)noc4C4CC4)C(C)(C)C3)nc12 [II-23] | 401 to 5000 nM | – |
| 2-(4-[[3-(2,6-Dichlorophenyl)-5-(propan-2-yl)-1,2-oxazol-4-yl]methyl]piperazin-1-yl)-1-benzofuran-5-carboxylic acid [Compound X-01] | 401 to 5000 nM | – |
| COc1cc(C(=O)O)cc2sc(N3CCN(Cc4c(-c5c(Cl)cccc5Cl)noc4C(C)C)C4(CC4)C3)nc12 [II-30] | 101 to 400 nM | 10 to 100 nM |
| COc1cc(C(=O)O)cc2sc(N3CCN(Cc4c(-c5c(Cl)cccc5Cl)noc4C(C)C)CC3CO)nc12 (centres unmarked) [II-07, 2-(4-[[3-(2,6-Dichlorophenyl)-5-(propan-2-yl)-1,2-oxazol-4-yl]methyl]-2-(hydroxymethyl)piperazin-1-yl)-4-methoxy-1,3-benzothiazole-6-carboxylic acid] | 401 to 5000 nM | – |
| CCC1CN(c2nc3c(OC)cc(C(=O)O)cc3s2)CCN1Cc1c(-c2c(Cl)cccc2Cl)noc1C(C)C (centres unmarked) [II-20] | 101 to 400 nM | 10 to 100 nM |
| COc1cc(C(=O)O)cc2sc(N3CCN(Cc4c(-c5c(Cl)cccc5Cl)noc4C(C)C)C(C)C3)nc12 (centres unmarked) [II-24] | 10 to 100 nM | 10 to 100 nM |
| COc1cc(C(=O)O)cc2sc(N3CCN(Cc4c(C(C)C)cnn4-c4c(Cl)cccc4Cl)CC3C)nc12 (centres unmarked) [II-14] | 401 to 5000 nM | – |
| COc1cc(C(=O)O)cc2sc(N3CCC(Cc4c(-c5c(Cl)cccc5Cl)noc4C(C)C)CC3)nc12 [II-43] | 101 to 400 nM | 10 to 100 nM |
| COc1cc(C(=O)O)cc2sc(N3CCC(Cc4c(-c5c(Cl)cncc5Cl)noc4C4CC4)CC3)nc12 [II-49] | 401 to 5000 nM | – |
| COc1cc(C(=O)O)cc2sc(N3CCN(Cc4c(-c5c(Cl)cccc5Cl)noc4C(C)C)C4CCCCC43)nc12 (racemic) [II-39] | 101 to 400 nM | – |
| COc1cc(C(=O)O)cc2sc(N3CCN(Cc4c(-c5c(Cl)cccc5Cl)noc4C(C)C)C(C)(C)C3)nc12 [II-22, 2-(4-[[3-(2,6-Dichlorophenyl)-5-(propan-2-yl)-1,2-oxazol-4-yl]methyl]-3,3-dimethylpiperazin-1-yl)-4-methoxy-1,3-benzothiazole-6-carboxylic acid] | 101 to 400 nM | 10 to 100 nM |
| COc1cc(C(=O)O)cc2sc(N3C4CCC3CN(Cc3c(-c5c(Cl)cccc5Cl)noc3C3CC3)C4)nc12 [II-36] | 10 to 100 nM | – |
| COc1cc(C(=O)O)cc2sc(N3CCC(Cc4c(-c5c(Cl)cccc5Cl)noc4C(C)C)C[C@H]3C)nc12 (stereo partly drawn) [II-45, 2-((2R)-4-((3-(2,6-Dichlorophenyl)-5-isopropylisoxazol-4-yl)methyl)-2-methylpiperidin-1-yl)-4-methoxybenzo[d]thiazole-6-carboxylic acid] | 10 to 100 nM | – |
| COc1cc(C(=O)O)cc2sc(C3CCN(Cc4c(-c5c(Cl)cccc5Cl)noc4C(C)C)CC3)nc12 [II-47, 2-(1-((3-(2,6-Dichlorophenyl)-5-isopropylisoxazol-4-yl)methyl)piperidin-4-yl)-4-methoxybenzo[d]thiazole-6-carboxylic acid] | – | 101 to 400 nM |
| COc1cc(C(=O)O)cc2sc(N3CCN(Cc4c(-c5c(Cl)cccc5Cl)noc4C(C)C)CC3(C)C)nc12 [II-16] | 101 to 400 nM | 10 to 100 nM |
| COc1cc(C(=O)O)cc2sc(N3CCCN(Cc4c(-c5c(Cl)cccc5Cl)noc4C(C)C)CC3)nc12 [II-40] | 101 to 400 nM | 10 to 100 nM |
| COc1cc(C(=O)O)cc2sc(N3CCN(Cc4c(C(C)C)cnn4-c4c(Cl)cccc4Cl)CC3C)nc12 (centres unmarked) [II-15] | 10 to 100 nM | – |
| COc1cc(C(=O)O)cc2sc(N3CCC(Cc4c(C(C)C)cnn4-c4c(Cl)cccc4Cl)CC3)nc12 [II-44] | 401 to 5000 nM | – |
| CC(C)c1onc(-c2c(Cl)cccc2Cl)c1CC1CCN(c2nc3c(F)cc(C(=O)O)cc3s2)CC1 [VI-11] | 401 to 5000 nM | – |
| COc1cc(C(=O)O)cc2sc(N3CCN(Cc4c(-c5c(Cl)cccc5Cl)noc4C(C)C)CC34CC4)nc12 [II-17] | 401 to 5000 nM | – |
| COc1cc(C(=O)O)cc2sc(N3CCN(Cc4c(-c5c(Cl)cccc5Cl)noc4C(C)C)C(C(C)C)C3)nc12 (racemic) [II-29] | 401 to 5000 nM | – |
| Cc1cc(C(=O)O)cc2sc(N3CCC(Cc4c(C(C)C)cnn4-c4c(Cl)cccc4Cl)CC3)nc12 [IV-10] | 101 to 400 nM | – |
| COc1cc(C(=O)O)cc2sc(N3CCN(Cc4c(-c5c(Cl)cccc5Cl)noc4C4CC4)CC3C)nc12 (centres unmarked) [II-13] | 10 to 100 nM | 10 to 100 nM |
| COc1cc(C(=O)O)cc2sc(N3CCN(Cc4c(C(C)C)cnn4-c4c(Cl)cccc4Cl)CC3)nc12 [II-03, 2-(4-[[1-(2,6-Dichlorophenyl)-4-(propan-2-yl)-1H-pyrazol-5-yl]methyl]piperazin-1-yl)-4-methoxy-1,3-benzothiazole-6-carboxylic acid] | 101 to 400 nM | 10 to 100 nM |
| COc1cc(C(=O)O)cc2sc(N3CCN(Cc4c(-c5c(Cl)cccc5Cl)noc4C4CC4)C(C)C3)nc12 (centres unmarked) [II-25] | 101 to 400 nM | – |
| COc1cc(C(=O)O)cc2sc(N3CCC(Cc4c(-c5ccccc5OC(F)(F)F)noc4C4CC4)CC3)nc12 [II-50] | 10 to 100 nM | – |
| CCC1CN(c2nc3c(OC)cc(C(=O)O)cc3s2)CCN1Cc1c(-c2c(Cl)cccc2Cl)noc1C1CC1 (centres unmarked) [II-21] | 101 to 400 nM | – |
| CC(C)c1onc(-c2c(Cl)cccc2Cl)c1CC1CCN(c2nc3ccc(C(=O)O)cc3s2)CC1 [III-08] | 401 to 5000 nM | – |
| COc1cc(C(=O)O)cc2sc(N3CC=C(Cc4c(-c5c(Cl)cccc5Cl)noc4C4CC4)C[C@H]3C)nc12 [II-46, 2-[(2R)-4-[[5-Cyclopropyl-3-(2,6-dichlorophenyl)-1,2-oxazol-4-yl]methyl]-2-methyl-1,2,3,6-tetrahydropyridin-1-yl]-4-methoxy-1,3-benzothiazole-6-carboxylic acid] | – | 10 to 100 nM |
